Test results as given in US20240124504A1, “AROMATIC HETEROCYCLIC COMPOUND, AND PHARMACEUTICAL COMPOSITION AND APPLICATION THEREOF” (GT APEIRON THERAPEUTICS LIMITED, priority 2020, published 2024).
pIC50: −log10 of the molar value.

Assays:
[1] = test system: human breast cancer cells HCC70; experiment: Cell biological activity detection (CyQuant, 72 hours), HCC70; type: cell-based; details: incubation for 72 hours
Outline: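 IC50 derived from CyQuant Direct nuclear staining (488 nm excitation) after 72 h compound exposure at 37 °C, 5% CO2. Compounds tested in 9 concentrations from 10 μM, 1:4 steps, 0.2% DMSO, on A2780 or HCC70 cells plated overnight at 2000/well in RPMI 1640 + 10% FBS.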

[2] = Caco-2 membrane permeability and efflux rate; type: in vitro ADME; details: human, Caco-2, Caco-2, 5 μM; for Papp B→A at 2 h, 5 μM: basal end to top end; for efflux ratio at 2 h, 5 μM: read-out: ER (efflux rate); for Papp A→B at 2 h, 5 μM: top end to basal end
Experimental: The recovered Caco-2 cell suspension was seeded into a […] plate and cultured for 14-18 days. After being cultured for 14 days, the cells were fused and differentiated to be ready for a transport experiment. The Caco-2 cell plate was taken out from the incubator. Stock solutions of a to-be-tested compound and a control compound were formulated with DMSO and diluted with an HBSS (10 mM HEPES, pH 7.4) buffer to a final concentration of 5 μM. A test compound solution and a control drug solution were added to each well (top end) of an insert culture plate, and the HBSS (10 mM HEPES, pH 7.4) buffer was added to each well of a test compound receiving plate (basal end). When measuring the transport rate of the compound from the basal end to the top end, the test compound solution and the control drug solution were added to each well of the receiving plate (basal end), the HBSS (10 mM HEPES, pH 7.4) buffer solution was added to each well (top end) of the insert culture plate for the test compound solution, and incubation was carried out for 2 hours in a CO2 incubator at 37° C. After the transport experiment was completed, vortexing was carried out for 10 minutes at 1000 rpm. After sample quenching at each time point, LC/MS/MS analysis was carried out. A fluorescence value was measured after a two-hour transport experiment, a lucifer yellow solution was added in a transwell chamber (top end), a transport buffer solution was added in the basal end, and incubation was carried out for 30 minutes in the CO2 incubator at 37° C. The solution was taken out directly from the top end and the basal end (using basolateral wells) and transferred to a new 96-well plate. A cell fluorescence value was measured by a microplate reader (to detect membrane integrity), an excitation wavelength was […], and an emission wavelength was […]. All data were calculated by using Microsoft Excel, and a peak area was calculated according to chromatograms. An apparent permeability coefficient (Papp, unit: 10-6, cm/s) and an efflux rate (ER) of the compounds in Caco-2 cells were calculated by the specific concentrations of a receiving end and an administering end.

[3] = molecular target: CDK9/cyclinT1 complex (Homo sapiens, UniProt P50750); experiment: In-vitro enzymatic inhibitory activity testing, CDK9 inhibition assay (Caliper EZ Reader II); type: biochemical; details: CDK9/cyclinT1 8 nM, 180 min at 27° C.
CDK9/cyclinT1 complex, sequence (P50750 whole entry, species assumed): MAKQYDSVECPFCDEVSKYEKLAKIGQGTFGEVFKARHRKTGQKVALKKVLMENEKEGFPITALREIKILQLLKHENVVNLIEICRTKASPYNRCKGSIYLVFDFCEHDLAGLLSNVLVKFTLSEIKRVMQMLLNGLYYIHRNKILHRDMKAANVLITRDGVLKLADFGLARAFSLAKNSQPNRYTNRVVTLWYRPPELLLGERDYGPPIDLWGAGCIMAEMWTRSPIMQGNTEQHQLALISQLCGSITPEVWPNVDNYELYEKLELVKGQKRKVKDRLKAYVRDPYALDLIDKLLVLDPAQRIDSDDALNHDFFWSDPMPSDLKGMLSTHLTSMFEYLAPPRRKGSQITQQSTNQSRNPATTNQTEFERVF
CDK9/cyclinT1 complex, sequence (O60563 whole entry partner, species assumed): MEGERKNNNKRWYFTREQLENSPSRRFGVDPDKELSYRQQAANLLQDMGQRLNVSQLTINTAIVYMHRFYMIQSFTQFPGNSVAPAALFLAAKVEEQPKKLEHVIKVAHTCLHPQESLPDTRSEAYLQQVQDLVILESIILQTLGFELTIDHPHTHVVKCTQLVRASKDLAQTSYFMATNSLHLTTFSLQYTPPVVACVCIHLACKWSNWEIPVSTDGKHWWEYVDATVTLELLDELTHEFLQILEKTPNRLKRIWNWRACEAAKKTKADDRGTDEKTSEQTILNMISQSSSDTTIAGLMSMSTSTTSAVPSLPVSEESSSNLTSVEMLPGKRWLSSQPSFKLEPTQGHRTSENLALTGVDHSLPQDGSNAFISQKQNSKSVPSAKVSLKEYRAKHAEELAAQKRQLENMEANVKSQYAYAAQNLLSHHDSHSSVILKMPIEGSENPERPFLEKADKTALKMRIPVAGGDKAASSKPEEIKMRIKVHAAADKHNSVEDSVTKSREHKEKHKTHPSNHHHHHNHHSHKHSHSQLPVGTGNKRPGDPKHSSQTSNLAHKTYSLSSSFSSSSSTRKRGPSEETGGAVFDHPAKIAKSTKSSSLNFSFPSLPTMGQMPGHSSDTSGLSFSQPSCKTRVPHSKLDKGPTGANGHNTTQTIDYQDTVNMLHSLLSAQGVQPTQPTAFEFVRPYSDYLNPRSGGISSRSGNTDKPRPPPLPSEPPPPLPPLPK
Outline: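 Phosphorylated and unphosphorylated fluorescent peptide were resolved by mobility-shift electrophoresis, with IC50 taken from a nonlinear regression of dose-response data. Reactions ran 180 min at 27 °C in MES buffer pH 6.5 with MgCl2, after 10 min enzyme–compound preincubation, using 8 nM CDK9/cyclinT1 and 5-FAM-CDK9tide.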

Row | Papp B→A at 2 h, 5 μM [2] [×10⁻⁶ cm/s] | efflux ratio at 2 h, 5 μM [2] | Papp A→B at 2 h, 5 μM [2] [×10⁻⁶ cm/s] | pIC50 [3] | SMILES | pIC50 ([1]; Homo sapiens, HCC70, 72 h) | pIC50 [1]
1 | 27.3 | 10.3 | 2.64 | < 4.30 | CC1(C)COCC(Nc2ncc(C(F)(F)F)c(-c3c[nH]c4c(P(C)(C)=O)cccc34)n2)CN1 (single isomer, unassigned) [Compound 91, (3-(2-((3,3-dimethyl-1,4-oxazepan-6-yl)amino)-5-(trifluoromethyl)pyrimidin-4-yl)-1H-indole-7-yl)dimethylphosphine oxide] | 6.70 to 7.70 | –
2 | 32.4 | 6.76 | 4.8 | < 4.30 | CC(O)[C@H](C)Nc1ncc(C(F)(F)F)c(-c2c[nH]c3c(P(C)(C)=O)cccc23)n1 (single isomer, unassigned) [Compound 129] | 6.70 to 7.70 | –
3 | – | – | – | < 4.30 | CC(O)[C@H](C)Nc1ncc(C(F)(F)F)c(-c2c[nH]c3c(P(C)(C)=O)cccc23)n1 (single isomer, unassigned) [Compound 130] | – | 6.70 to 7.70
4 | 32.5 | 13.3 | 2.44 | < 4.30 | CP(C)(=O)c1cccc2c(-c3nc(NCC4CC4CO)ncc3C(F)(F)F)c[nH]c12 (single isomer, unassigned) [Compound 143] | 6.70 to 7.70 | –
5 | – | – | – | < 4.30 | CP(C)(=O)c1cccc2c(-c3nc(NCC4CC4CO)ncc3C(F)(F)F)c[nH]c12 (single isomer, unassigned) [Compound 144] | – | 6.70 to 7.70
6 | 23.6 | 3.95 | 5.32 | < 4.30 | C[C@@H](CO)Nc1ncc(C(F)(F)F)c(-c2c[nH]c3c(P(C)(C)=O)cccc23)n1 [Compound 82, (S)-(3-(2-((1-hydroxypropyl-2-yl)amino)-5-(trifluoromethyl)pyrimidin-4-yl)-1H-indole-7-yl)dimethylphosphine oxide] | > 7.70 | –
7 | 32.4 | 16.3 | 1.99 | 4.30 to 5.30 | CP(C)(=O)c1cccc2c(-c3nc(N[C@H]4CC[C@H](O)C4)ncc3C(F)(F)F)c[nH]c12 [Compound 83] | > 7.70 | –
8 | 21.3 | 2.77 | 7.69 | < 4.30 | CC(C)(CO)Nc1ncc(C(F)(F)F)c(-c2c[nH]c3c(P(C)(C)=O)cccc23)n1 [Compound 85, (3-(2-((1-hydroxy-2-methylpropan-2-yl)amino)-5-(trifluoromethyl)pyrimidin-4-yl)-1H-indole-7-yl)dimethylphosphine oxide] | 6.70 to 7.70 | –

Second part, the molecule before the results:

Row | SMILES | Papp B→A at 2 h, 5 μM [2] [×10⁻⁶ cm/s] | efflux ratio at 2 h, 5 μM [2] | Papp A→B at 2 h, 5 μM [2] [×10⁻⁶ cm/s] | pIC50 [3] | pIC50 ([1]; Homo sapiens, HCC70, 72 h) | pIC50 [1]
9 | CP(C)(=O)c1cccc2c(-c3nc(NC4(CO)CCOC4)ncc3C(F)(F)F)c[nH]c12 (single isomer, unassigned) [Compound 118] | 33.8 | 16 | 2.11 | < 4.30 | > 7.70 | –
10 | CP(C)(=O)c1cccc2c(-c3nc(NC4(CO)CCOC4)ncc3C(F)(F)F)c[nH]c12 (single isomer, unassigned) [Compound 119] | – | – | – | < 4.30 | – | 6.70 to 7.70
11 | CC(CO)CNc1ncc(C(F)(F)F)c(-c2c[nH]c3c(P(C)(C)=O)cccc23)n1 (single isomer, unassigned) [Compound 149] | 32.8 | 7.8 | 4.2 | < 4.30 | > 7.70 | –
12 | CC(CO)CNc1ncc(C(F)(F)F)c(-c2c[nH]c3c(P(C)(C)=O)cccc23)n1 (single isomer, unassigned) [Compound 150] | – | – | – | < 4.30 | – | > 7.70
13 | C[C@@H](CO)Nc1ncc(C(F)(F)F)c(-c2c[nH]c3c(P(C)(C)=O)c(C#N)ccc23)n1 [Compound 79, (S)-7-(dimethylphosphoryl)-3-(2-((1-hydroxy-propan-2-yl)amino)-5-(trifluoromethyl)pyrimidin-4-yl)-1H-indole-6-carbonitrile] | 22.3 | 4.38 | 5.1 | < 4.30 | 6.70 to 7.70 | –
